Columns and labels:
[1] = target: Phosphatidylinositol 4,5-bisphosphate 3-kinase catalytic subunit gamma isoform (Homo sapiens) (UniProt P48736); test: Inhibition of PI3Kgamma (unknown origin) at 10 uM incubated for 60 mins by kinase-glo luminescence assay
[2] = target: T1, Phosphatidylinositol 4,5-bisphosphate 3-kinase catalytic subunit alpha isoform (Homo sapiens, UniProt P42336); test: Inhibition of PI3Kalpha (unknown origin) incubated for 60 mins by kinase-glo luminescence assay
[3] = target: T2, Phosphatidylinositol 4,5-bisphosphate 3-kinase catalytic subunit beta isoform (Homo sapiens, UniProt P42338); test: Inhibition of PI3Kbeta (unknown origin) at 10 uM incubated for 60 mins by kinase-glo luminescence assay
Target sequence in this assay (P42338 whole entry, looked up, canonical isoform): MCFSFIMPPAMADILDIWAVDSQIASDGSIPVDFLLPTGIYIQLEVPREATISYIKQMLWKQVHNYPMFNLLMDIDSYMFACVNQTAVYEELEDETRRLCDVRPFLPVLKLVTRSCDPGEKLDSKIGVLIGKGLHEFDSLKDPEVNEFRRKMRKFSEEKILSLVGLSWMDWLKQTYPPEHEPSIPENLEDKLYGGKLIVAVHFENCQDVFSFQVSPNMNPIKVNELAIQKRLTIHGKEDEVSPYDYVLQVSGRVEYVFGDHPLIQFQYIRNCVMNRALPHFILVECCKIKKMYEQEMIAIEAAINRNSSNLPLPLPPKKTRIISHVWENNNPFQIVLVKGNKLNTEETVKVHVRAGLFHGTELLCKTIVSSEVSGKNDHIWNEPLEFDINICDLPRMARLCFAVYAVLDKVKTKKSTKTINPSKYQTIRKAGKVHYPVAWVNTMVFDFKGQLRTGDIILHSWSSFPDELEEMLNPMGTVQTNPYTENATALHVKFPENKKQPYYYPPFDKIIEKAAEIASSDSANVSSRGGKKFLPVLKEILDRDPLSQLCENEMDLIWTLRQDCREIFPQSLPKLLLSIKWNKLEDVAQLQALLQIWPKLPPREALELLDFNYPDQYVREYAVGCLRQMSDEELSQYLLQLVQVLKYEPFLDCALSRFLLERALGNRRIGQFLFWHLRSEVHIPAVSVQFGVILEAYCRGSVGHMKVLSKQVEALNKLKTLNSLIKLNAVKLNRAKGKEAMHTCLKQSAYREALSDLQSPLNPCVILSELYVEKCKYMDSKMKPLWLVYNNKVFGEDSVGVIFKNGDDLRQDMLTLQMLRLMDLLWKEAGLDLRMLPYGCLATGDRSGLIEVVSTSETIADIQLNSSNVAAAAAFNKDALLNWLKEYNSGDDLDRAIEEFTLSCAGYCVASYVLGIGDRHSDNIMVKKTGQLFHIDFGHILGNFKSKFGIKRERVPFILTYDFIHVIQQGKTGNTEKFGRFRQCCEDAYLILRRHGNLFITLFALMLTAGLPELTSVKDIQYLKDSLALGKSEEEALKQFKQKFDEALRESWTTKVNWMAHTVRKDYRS

[4] = target: T3, Phosphatidylinositol 4,5-bisphosphate 3-kinase catalytic subunit delta isoform (Homo sapiens, UniProt O00329); test: Inhibition of PI3Kdelta (unknown origin) incubated for 60 mins by kinase-glo luminescence assay
T3 sequence (O00329 whole entry): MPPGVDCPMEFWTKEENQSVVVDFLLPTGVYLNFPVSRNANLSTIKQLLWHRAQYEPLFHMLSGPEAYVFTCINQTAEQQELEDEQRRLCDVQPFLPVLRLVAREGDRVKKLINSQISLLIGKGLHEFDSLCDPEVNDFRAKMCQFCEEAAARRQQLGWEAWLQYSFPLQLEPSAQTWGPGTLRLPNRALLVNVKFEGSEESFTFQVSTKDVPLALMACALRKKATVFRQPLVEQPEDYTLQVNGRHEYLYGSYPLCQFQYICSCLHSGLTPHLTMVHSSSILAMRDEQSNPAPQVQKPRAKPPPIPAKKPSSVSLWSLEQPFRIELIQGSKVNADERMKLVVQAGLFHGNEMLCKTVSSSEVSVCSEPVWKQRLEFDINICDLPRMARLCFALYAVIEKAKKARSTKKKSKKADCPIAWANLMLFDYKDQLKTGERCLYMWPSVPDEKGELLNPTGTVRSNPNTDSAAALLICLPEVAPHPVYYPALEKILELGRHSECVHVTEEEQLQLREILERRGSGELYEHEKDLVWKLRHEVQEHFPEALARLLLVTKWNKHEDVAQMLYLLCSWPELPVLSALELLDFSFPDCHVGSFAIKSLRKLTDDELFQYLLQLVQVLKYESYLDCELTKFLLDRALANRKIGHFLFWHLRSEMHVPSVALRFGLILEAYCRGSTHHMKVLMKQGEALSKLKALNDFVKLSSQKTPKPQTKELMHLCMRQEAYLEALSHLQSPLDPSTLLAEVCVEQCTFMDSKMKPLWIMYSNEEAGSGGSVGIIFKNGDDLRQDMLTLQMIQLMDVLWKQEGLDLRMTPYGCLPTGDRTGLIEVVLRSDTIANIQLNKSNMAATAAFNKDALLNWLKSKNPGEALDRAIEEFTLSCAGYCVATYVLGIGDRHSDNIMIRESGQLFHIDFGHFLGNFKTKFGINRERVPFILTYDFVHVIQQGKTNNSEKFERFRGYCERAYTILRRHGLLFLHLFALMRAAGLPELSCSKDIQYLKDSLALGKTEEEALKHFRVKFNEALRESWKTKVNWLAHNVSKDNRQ

[5] = target: T4, DNA-dependent protein kinase catalytic subunit (Homo sapiens, UniProt P78527); test: Inhibition of human DNA-PK using EPPLSQEAFADLWKK as substrate by HTRF assay
[6] = target: T4, DNA-dependent protein kinase catalytic subunit; test: Inhibition of human DNA-PK using EPPLSQEAFADLWKK as substrate at 10 uM by HTRF assay
[7] = target: T1, Phosphatidylinositol 4,5-bisphosphate 3-kinase catalytic subunit alpha isoform; test: Inhibition of PI3Kalpha (unknown origin) at 10 uM incubated for 60 mins by kinase-glo luminescence assay
[8] = target: T5, Phosphatidylinositol 4,5-bisphosphate 3-kinase catalytic subunit delta isoform (Homo sapiens) (UniProt O00329); test: Inhibition of PI3Kdelta (unknown origin) at 10 uM incubated for 60 mins by kinase-glo luminescence assay
T5 sequence (whole entry): T3 sequence (O00329 whole entry)

[9] = target: T2, Phosphatidylinositol 4,5-bisphosphate 3-kinase catalytic subunit beta isoform; test: Inhibition of PI3Kbeta (unknown origin) incubated for 60 mins by kinase-glo luminescence assay
Target sequence in this assay (P42338 whole entry, canonical isoform): as the sequence (P42338 whole entry, looked up, canonical isoform) above

T1 sequence (P42336 whole entry, canonical isoform): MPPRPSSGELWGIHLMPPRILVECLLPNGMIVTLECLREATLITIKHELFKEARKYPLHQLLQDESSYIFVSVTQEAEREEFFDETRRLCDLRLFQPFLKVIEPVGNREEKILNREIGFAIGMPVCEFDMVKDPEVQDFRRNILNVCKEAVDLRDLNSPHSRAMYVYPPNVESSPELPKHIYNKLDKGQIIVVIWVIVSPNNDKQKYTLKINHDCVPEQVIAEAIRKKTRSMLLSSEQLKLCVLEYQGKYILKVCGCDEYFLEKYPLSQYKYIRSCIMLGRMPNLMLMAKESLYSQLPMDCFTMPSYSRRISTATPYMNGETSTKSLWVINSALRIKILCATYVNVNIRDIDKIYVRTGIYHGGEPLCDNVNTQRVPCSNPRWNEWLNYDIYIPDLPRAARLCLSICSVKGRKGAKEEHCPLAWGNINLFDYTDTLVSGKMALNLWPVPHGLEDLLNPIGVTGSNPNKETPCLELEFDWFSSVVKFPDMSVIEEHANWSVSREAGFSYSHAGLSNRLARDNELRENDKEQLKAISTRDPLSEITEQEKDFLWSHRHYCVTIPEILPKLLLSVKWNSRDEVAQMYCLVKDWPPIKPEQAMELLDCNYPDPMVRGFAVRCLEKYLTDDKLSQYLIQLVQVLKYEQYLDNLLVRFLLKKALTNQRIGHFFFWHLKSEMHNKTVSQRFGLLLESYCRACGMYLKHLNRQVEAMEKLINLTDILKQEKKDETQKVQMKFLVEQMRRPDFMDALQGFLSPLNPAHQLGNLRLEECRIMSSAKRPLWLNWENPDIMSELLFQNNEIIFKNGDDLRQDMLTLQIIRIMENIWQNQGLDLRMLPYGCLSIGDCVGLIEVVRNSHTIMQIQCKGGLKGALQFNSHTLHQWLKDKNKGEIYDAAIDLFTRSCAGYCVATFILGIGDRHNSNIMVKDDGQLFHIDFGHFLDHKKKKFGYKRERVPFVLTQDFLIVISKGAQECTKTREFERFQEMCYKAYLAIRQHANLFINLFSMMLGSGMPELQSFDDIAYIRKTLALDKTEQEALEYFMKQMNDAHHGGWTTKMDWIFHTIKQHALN
Chain of Phosphatidylinositol 4,5-bisphosphate 3-kinase catalytic subunit gamma isoform (Homo sapiens) (P48736 whole entry, looked up, canonical isoform): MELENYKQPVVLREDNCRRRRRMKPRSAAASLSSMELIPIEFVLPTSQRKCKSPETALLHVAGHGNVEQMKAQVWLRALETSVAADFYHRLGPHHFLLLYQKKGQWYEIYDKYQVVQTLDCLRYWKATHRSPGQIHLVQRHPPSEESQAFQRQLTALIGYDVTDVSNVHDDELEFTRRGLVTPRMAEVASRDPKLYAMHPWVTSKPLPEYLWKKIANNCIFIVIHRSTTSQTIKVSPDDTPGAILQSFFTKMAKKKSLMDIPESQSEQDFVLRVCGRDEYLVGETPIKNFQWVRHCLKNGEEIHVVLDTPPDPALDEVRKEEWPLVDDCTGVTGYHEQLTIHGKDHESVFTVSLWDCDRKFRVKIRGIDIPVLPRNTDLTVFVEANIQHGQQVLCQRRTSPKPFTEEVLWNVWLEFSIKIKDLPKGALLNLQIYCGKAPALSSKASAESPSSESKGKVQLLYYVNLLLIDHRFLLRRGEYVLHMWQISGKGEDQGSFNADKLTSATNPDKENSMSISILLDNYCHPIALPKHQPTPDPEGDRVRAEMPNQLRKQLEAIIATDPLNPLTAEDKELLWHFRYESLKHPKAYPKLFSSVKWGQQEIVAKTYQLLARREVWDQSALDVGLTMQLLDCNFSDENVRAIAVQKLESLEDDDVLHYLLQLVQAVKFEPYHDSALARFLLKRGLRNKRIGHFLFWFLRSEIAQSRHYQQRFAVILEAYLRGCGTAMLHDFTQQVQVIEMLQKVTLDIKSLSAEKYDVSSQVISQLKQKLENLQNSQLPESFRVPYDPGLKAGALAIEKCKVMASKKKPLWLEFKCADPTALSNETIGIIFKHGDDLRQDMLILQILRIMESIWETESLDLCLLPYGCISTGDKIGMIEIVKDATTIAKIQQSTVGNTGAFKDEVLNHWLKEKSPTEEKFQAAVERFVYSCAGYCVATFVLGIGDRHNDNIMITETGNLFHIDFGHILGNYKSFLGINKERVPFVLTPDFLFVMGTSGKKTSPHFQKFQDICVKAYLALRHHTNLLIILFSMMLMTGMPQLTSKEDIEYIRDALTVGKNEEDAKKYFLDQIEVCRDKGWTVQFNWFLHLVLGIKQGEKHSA

| SMILES | inhibition [1] [%] | IC50 [2] [µM] | inhibition [3] [%] | IC50 [4] [µM] | IC50 [5] [µM] | inhibition [6] [%] | inhibition [7] [%] | inhibition [8] [%] | IC50 [9] [µM] |
| --- | --- | --- | --- | --- | --- | --- | --- | --- | --- |
| O=c1nc(N2CCOCC2)oc2c(-c3cc4ccccc4s3)cccc12 | 17 | 10 | 15 | 3.7 | 2.12 |  |  |  |  |
| O=c1nc(N2CCOCC2)oc2ccc(-c3cccs3)cc12 |  |  |  |  |  | 24 |  |  |  |
| O=c1cc(N2CCOCC2)oc2c(-c3ccccc3)cccc12 [LY-294002] |  |  |  | 0.95 | 0.3 |  |  |  |  |
| O=c1nc(N2CCOCC2)oc2ccc(-c3cccc(-c4ccccc4)c3)cc12 | 0 |  | 13 |  |  | 7 | 11 | 0 |  |
| O=c1nc(N2CCOCC2)oc2ccc(-c3ccc(Cl)cc3)cc12 | 10 |  | 0 |  |  | 7 | 10 | 0 |  |
| O=c1nc(N2CCOCC2)oc2ccc(/C=C/c3ccccc3)cc12 | 4 |  | 29 |  |  | 23 | 3 | 0 |  |
| COc1ccc(-c2cc(Cl)cc3c(=O)nc(N4CCOCC4)oc23)cc1 | 0 |  | 0 | 2.6 | 12.3 |  | 16 |  |  |
| O=c1nc(N2CCOCC2)oc2ccc(-c3ccc(CO)cc3)cc12 | 0 |  | 0 |  |  | 11 | 7 | 0 |  |
| O=c1nc(N2CCOCC2)oc2c(-c3cccnc3)cccc12 | 24 |  |  |  | 78.4 |  | 26 | 37 | > 10 |
| O=c1nc(N2CCOCC2)oc2c(-c3cc4ccccc4s3)cc(Cl)cc12 | 14 |  | 15 |  | 5.77 |  | 35 | 16 |  |
| O=c1nc(N2CCOCC2)oc2ccc(-c3cccc4c3oc3ccccc34)cc12 | 0 |  | 6 |  |  | 12 | 5 | 0 |  |
| O=c1nc(N2CCOCC2)oc2ccc(-c3ccccc3)cc12 | 9 |  | 0 |  |  | 1 | 2 | 0 |  |
| O=c1nc(N2CCOCC2)oc2c(-c3ccc(Cl)cc3)cccc12 | 16 | > 10 | 34 | 10 | 10.9 |  |  |  |  |
| Nc1cccc(-c2cccc3c(=O)nc(N4CCOCC4)oc23)c1 | 0 |  |  |  | 63.5 |  | 13 | 4 | 10 |
| O=c1nc(N2CCOCC2)oc2c(-c3ccc(CO)cc3)cccc12 | 31 | 10 |  | 9 | 15.7 |  |  |  | 3.2 |
| O=c1nc(N2CCOCC2)oc2c(-c3cccc4c3sc3ccccc34)cc(Cl)cc12 | 1 |  | 59 |  | 0.564 |  | 0 | 36 |  |
| O=c1nc(N2CCOCC2)oc2ccc(-c3cc4ccccc4s3)cc12 | 3 |  | 20 |  |  | 0 | 3 | 0 |  |
| COc1ccc(-c2ccc3oc(N4CCOCC4)nc(=O)c3c2)cc1 | 0 |  | 17 |  |  | 8 | 7 | 0 |  |
| Nc1cccc(-c2ccc3oc(N4CCOCC4)nc(=O)c3c2)c1 |  |  |  |  |  | 7 |  |  |  |
| O=c1nc(N2CCOCC2)oc2ccc(-c3ccsc3)cc12 |  |  |  |  |  | 21 |  |  |  |
| O=c1nc(N2CCOCC2)oc2ccc(-c3cccc4ccccc34)cc12 | 4 |  | 0 |  |  | 4 | 10 | 0 |  |
| O=c1nc(N2CCOCC2)oc2ccc(-c3cccnc3)cc12 | 0 |  | 36 |  |  | 6 | 11 | 3 |  |
| O=c1nc(N2CCOCC2)oc2c(-c3cccs3)cc(Cl)cc12 | 0 |  | 0 | 10 | 6.05 |  | 42 |  |  |
| NC(=O)c1ccc(-c2ccc3oc(N4CCOCC4)nc(=O)c3c2)cc1 |  |  |  |  |  | 8 |  |  |  |
